Read-outs that look alike come from different tables or passages of the source.
What was measured:
CDK19/Cyclin C = CDK19/Cyclin C (Homo sapiens, UniProt Q9BWU1); assay: NanoBRET live-cell target engagement, NanoLuc-CDK19/Cyclin C in HEK-293; settings: read-out: Inhibition at 10µM (%), CDK19/C
CDK14/Cyclin Y = CDK14/Cyclin Y (Homo sapiens, UniProt O94921); assay: NanoBRET live-cell target engagement, CDK14-NanoLuc/Cyclin Y in HEK-293; type: binding; settings: CDK14/Y, read-out: Inhibition at 10µM (%)
CDK15/Cyclin Y = CDK15/Cyclin Y (Homo sapiens, UniProt Q96Q40); assay: NanoBRET live-cell target engagement, NanoLuc-CDK15/Cyclin Y in HEK-293; type: binding
CDK6/Cyclin D1 = CDK6/Cyclin D1 (Homo sapiens, UniProt Q00534); assay: NanoBRET live-cell target engagement, NanoLuc-CDK6/Cyclin D1 in HEK-293; type: binding; settings: read-out: Inhibition at 10µM (%), CDK6/D1
CDK6/Cyclin D1, sequence (Q00534 whole entry): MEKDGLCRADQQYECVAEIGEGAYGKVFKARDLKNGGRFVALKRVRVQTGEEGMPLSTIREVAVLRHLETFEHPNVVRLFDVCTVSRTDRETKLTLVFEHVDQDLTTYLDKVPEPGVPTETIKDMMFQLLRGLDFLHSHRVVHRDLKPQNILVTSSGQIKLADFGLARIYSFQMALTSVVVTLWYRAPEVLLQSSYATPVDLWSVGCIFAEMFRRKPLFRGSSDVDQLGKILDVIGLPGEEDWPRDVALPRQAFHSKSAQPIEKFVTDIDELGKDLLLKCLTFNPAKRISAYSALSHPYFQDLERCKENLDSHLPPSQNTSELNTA
CDK6/Cyclin D1, sequence (P24385 whole entry partner): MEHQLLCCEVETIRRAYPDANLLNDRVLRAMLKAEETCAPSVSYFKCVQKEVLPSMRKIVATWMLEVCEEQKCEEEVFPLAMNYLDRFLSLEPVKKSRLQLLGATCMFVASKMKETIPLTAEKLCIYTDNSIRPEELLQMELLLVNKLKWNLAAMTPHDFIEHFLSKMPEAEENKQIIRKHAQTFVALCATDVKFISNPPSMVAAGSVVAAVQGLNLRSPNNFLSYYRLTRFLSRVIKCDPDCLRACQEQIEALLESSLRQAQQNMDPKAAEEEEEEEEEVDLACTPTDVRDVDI

CDK17/Cyclin Y = CDK17/Cyclin Y (Homo sapiens, UniProt Q00537); assay: NanoBRET live-cell target engagement, CDK17-NanoLuc/Cyclin Y in HEK-293; type: binding
CDK20/Cyclin H = CDK20/Cyclin H (Homo sapiens, UniProt Q8IZL9); assay: NanoBRET live-cell target engagement, NanoLuc-CDK20/Cyclin H in HEK-293; type: binding
CDK13/Cyclin K = CDK13/Cyclin K (Homo sapiens, UniProt Q14004); assay: NanoBRET live-cell target engagement, CDK13-NanoLuc/Cyclin K in HEK-293; type: binding; settings: CDK13/K, read-out: Inhibition at 10µM (%)
CDK10/Cyclin L2 = CDK10/Cyclin L2 (Homo sapiens, UniProt Q15131); assay: NanoBRET live-cell target engagement, CDK10-NanoLuc/Cyclin L2 in HEK-293; settings: read-out: Inhibition at 10µM (%), CDK10/L2
CDK10/Cyclin L2, sequence (Q15131 whole entry): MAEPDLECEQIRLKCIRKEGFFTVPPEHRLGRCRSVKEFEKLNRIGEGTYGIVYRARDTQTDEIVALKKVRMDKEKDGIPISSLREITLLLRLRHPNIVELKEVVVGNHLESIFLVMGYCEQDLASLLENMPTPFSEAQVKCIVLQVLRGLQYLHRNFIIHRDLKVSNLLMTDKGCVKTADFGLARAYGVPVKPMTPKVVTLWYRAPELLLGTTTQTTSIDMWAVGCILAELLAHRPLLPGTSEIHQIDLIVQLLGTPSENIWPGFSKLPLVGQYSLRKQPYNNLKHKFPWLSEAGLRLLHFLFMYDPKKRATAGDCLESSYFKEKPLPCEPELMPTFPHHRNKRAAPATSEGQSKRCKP

CDK11A/Cyclin L2 = biological target: T1, CDK11A/Cyclin L2 (Homo sapiens, UniProt Q9UQ88); assay: NanoBRET live-cell target engagement, CDK11A-NanoLuc/Cyclin L2 in HEK-293; type: binding; settings: CDK11a/L2, read-out: Inhibition at 10µM (%)
T1 sequence (Q9UQ88 1-783): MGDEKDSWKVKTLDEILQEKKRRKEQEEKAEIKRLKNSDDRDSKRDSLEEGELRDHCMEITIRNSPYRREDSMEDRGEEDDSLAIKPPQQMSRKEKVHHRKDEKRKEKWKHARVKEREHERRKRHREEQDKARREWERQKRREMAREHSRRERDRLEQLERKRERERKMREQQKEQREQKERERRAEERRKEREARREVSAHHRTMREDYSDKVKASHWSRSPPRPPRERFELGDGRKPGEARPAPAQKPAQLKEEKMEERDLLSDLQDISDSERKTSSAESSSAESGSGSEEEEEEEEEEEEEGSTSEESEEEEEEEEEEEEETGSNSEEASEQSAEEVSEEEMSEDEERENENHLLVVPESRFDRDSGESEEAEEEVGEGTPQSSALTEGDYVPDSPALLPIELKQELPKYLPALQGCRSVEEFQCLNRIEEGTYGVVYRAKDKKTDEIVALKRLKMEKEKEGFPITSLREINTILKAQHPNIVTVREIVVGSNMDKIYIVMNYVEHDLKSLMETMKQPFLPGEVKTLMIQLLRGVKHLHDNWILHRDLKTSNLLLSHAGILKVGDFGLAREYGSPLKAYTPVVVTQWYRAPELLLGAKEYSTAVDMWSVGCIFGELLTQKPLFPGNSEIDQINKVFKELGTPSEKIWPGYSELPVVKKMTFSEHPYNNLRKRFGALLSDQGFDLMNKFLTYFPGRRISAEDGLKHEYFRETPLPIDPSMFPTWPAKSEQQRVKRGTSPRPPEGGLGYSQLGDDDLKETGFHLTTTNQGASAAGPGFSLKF

CDK16/Cyclin Y = CDK16/Cyclin Y (Homo sapiens, UniProt Q00536); assay: NanoBRET live-cell target engagement, CDK16-NanoLuc/Cyclin Y in HEK-293; type: binding; settings: CDK16/Y, read-out: Inhibition at 10µM (%)
CDK16/Cyclin Y, sequence (Q00536 whole entry): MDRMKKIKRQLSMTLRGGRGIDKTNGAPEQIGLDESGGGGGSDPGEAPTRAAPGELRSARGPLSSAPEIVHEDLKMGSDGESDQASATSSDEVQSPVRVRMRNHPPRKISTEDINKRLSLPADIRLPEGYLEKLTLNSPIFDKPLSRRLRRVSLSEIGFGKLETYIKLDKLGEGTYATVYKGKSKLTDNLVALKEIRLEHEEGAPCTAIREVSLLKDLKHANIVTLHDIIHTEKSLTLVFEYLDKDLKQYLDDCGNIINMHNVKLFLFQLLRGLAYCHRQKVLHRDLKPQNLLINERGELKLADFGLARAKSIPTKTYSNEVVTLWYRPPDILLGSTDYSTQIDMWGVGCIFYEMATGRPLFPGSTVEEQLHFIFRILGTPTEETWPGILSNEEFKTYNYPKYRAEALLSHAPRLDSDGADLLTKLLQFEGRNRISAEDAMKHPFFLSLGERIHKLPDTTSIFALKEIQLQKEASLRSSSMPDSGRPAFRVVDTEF
CDK16/Cyclin Y, sequence (Q8ND76 whole entry partner): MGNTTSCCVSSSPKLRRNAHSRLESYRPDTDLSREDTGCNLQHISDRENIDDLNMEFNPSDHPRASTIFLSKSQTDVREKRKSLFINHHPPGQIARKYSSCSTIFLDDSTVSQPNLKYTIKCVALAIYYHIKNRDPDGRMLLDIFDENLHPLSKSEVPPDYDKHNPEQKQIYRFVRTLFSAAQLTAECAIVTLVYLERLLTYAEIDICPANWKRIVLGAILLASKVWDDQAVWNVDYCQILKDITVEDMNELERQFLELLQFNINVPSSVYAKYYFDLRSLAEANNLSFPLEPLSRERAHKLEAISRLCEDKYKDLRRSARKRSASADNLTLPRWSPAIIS

all 21 human CDKs = assay: Live-cell selectivity profile across all 21 CDK/cyclin complexes in HEK-293; type: binding
CDK12/Cyclin K = CDK12/Cyclin K (Homo sapiens, UniProt Q9NYV4); assay: NanoBRET live-cell target engagement, CDK12-NanoLuc/Cyclin K in HEK-293; type: binding; settings: CDK12/K, read-out: Inhibition at 10µM (%)
CDK8/Cyclin C = CDK8/Cyclin C (Homo sapiens, UniProt P49336); assay: NanoBRET live-cell target engagement, NanoLuc-CDK8/Cyclin C in HEK-293; type: binding; settings: CDK8/C, read-out: Inhibition at 10µM (%)
CDK11B/Cyclin L2 = CDK11B/Cyclin L2 (Homo sapiens, UniProt P21127); assay: NanoBRET live-cell target engagement, CDK11B-NanoLuc/Cyclin L2 in HEK-293; type: binding; settings: CDK11b/L2, read-out: Inhibition at 10µM (%)
CDK11B/Cyclin L2, sequence (P21127 1-782 isoform P21127-2): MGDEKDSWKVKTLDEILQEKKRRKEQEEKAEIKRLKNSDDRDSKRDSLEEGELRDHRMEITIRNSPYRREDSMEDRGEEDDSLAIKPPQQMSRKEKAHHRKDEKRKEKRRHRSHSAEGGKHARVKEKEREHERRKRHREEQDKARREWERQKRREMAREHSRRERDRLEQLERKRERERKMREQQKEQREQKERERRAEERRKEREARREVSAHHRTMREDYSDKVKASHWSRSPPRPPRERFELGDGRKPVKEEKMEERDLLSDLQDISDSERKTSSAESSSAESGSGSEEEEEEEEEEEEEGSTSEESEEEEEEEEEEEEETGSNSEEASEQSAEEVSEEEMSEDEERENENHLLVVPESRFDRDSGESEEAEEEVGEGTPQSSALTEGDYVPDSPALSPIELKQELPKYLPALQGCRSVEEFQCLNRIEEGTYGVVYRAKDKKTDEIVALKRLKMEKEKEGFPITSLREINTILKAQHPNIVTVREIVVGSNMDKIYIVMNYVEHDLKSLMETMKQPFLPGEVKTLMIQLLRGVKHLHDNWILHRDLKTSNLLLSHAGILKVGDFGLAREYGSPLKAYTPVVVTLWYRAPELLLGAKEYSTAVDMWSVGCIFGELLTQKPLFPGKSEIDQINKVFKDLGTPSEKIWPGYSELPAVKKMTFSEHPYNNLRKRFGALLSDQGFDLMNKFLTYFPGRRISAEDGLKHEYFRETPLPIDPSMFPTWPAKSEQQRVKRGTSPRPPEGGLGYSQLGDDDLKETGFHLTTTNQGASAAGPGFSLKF

CDK18/Cyclin Y = CDK18/Cyclin Y (Homo sapiens, UniProt Q07002); assay: NanoBRET live-cell target engagement, CDK18-NanoLuc/Cyclin Y in HEK-293; type: binding; settings: CDK18/Y, read-out: Inhibition at 10µM (%)
CDK18/Cyclin Y, sequence (Q07002 whole entry): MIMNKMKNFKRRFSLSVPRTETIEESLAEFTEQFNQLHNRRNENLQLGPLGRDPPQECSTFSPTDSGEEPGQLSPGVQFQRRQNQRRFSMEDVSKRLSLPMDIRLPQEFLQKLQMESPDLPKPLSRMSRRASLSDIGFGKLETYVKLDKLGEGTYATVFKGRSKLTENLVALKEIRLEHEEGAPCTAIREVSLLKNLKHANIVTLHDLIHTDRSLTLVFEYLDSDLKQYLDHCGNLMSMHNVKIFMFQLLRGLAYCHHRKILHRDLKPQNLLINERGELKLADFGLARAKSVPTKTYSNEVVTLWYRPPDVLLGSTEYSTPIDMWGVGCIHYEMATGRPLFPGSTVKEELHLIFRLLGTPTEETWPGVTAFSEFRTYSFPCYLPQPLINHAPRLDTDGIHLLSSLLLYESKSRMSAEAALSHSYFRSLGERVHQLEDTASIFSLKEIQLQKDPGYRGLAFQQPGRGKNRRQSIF
CDK18/Cyclin Y, sequence (Q8ND76 whole entry partner): as the sequence (Q8ND76 whole entry partner) above

CDK5/CDK5R1 = CDK5/CDK5R1 (Homo sapiens, UniProt Q00535); assay: NanoBRET live-cell target engagement, CDK5-NanoLuc/CDK5R1 in HEK-293; type: binding; settings: CDK5/CDK5R1, read-out: Inhibition at 10µM (%)
CDK5/CDK5R1, sequence (Q00535 whole entry): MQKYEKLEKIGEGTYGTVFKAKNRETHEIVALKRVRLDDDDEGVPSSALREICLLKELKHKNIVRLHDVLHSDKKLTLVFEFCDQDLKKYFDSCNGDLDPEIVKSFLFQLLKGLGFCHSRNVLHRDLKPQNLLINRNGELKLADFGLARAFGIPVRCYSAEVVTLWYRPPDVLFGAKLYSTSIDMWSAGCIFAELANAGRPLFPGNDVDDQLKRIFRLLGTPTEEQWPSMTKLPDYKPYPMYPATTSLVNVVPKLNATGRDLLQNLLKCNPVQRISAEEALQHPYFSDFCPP
CDK5/CDK5R1, sequence (Q15078 whole entry partner): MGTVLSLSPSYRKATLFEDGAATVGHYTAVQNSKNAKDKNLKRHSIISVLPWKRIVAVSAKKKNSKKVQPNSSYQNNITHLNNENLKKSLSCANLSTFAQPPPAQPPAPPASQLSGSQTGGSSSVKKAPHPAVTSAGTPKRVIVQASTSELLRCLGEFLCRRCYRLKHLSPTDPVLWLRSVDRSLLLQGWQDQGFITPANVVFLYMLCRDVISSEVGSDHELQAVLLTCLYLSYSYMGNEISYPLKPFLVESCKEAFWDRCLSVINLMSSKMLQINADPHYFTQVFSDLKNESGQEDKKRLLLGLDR

CDK4/Cyclin D1 = CDK4/Cyclin D1 (Homo sapiens, UniProt P11802); assay: NanoBRET live-cell target engagement, NanoLuc-CDK4/Cyclin D1 in HEK-293; type: binding; settings: CDK4/D1, read-out: Inhibition at 10µM (%)
CDK4/Cyclin D1, sequence (P11802 whole entry): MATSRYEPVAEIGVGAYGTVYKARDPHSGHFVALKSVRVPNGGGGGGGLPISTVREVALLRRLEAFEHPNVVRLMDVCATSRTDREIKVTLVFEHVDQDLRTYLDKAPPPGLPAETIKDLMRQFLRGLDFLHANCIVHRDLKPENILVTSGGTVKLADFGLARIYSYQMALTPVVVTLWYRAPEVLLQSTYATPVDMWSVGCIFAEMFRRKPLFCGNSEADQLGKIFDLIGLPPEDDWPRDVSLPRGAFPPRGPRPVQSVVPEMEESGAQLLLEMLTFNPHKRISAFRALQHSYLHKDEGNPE
CDK4/Cyclin D1, sequence (P24385 whole entry partner): as the sequence (P24385 whole entry partner) above

[1] = CDK15/Y, average, read-out: Inhibition at 10µM (%)
[2] = CDK15/Y, experiment 2, read-out: Inhibition at 10µM (%)
[3] = CDK17/Y, average, read-out: Inhibition at 10µM (%)
[4] = CDK17/Y, experiment 2, read-out: Inhibition at 10µM (%)

CDK19/Cyclin C, sequence (Q9BWU1 whole entry): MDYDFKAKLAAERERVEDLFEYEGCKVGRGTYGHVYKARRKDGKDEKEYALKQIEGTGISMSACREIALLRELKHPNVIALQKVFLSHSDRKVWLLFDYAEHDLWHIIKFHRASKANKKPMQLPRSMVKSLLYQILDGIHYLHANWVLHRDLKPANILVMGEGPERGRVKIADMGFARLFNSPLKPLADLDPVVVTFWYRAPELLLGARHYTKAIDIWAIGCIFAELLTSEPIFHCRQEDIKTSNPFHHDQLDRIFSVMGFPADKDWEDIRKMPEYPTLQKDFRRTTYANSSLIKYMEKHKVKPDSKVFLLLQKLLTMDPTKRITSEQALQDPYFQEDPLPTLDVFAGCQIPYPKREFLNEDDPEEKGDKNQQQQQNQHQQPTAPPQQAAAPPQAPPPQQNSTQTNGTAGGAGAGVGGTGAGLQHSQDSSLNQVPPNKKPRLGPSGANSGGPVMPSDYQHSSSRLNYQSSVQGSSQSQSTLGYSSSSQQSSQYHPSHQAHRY
CDK19/Cyclin C, sequence (P24863 whole entry partner): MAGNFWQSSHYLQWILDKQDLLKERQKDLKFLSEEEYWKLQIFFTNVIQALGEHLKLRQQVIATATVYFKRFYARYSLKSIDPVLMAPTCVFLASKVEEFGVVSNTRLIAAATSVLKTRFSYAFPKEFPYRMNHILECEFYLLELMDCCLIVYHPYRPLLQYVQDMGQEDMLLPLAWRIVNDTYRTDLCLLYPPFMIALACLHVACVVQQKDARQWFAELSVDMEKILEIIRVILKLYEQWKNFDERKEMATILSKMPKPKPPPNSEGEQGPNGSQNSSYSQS

NS(=O)(=O)c1ccc(Nc2nc(OCC3CCCCC3)c3nc[nH]c3n2)cc1 [NU6102]
inhibition at 10 µM (CDK19/Cyclin C; average): 13% | inhibition at 10 µM (CDK19/Cyclin C; experiment 1): 21% | inhibition at 10 µM (CDK19/Cyclin C; experiment 2): 4.9% | inhibition at 10 µM (CDK14/Cyclin Y; average): 13.8% | inhibition at 10 µM (CDK14/Cyclin Y; experiment 1): 9.9% | inhibition at 10 µM (CDK14/Cyclin Y; experiment 2): 17.7% | inhibition at 10 µM (CDK15/Cyclin Y; [1]): 28.3% | inhibition at 10 µM (CDK15/Cyclin Y; [2]): 10.5% | inhibition at 10 µM (CDK15/Cyclin Y; read-out: Inhibition at 10µM (%), CDK15/Y, experiment 1): 46.2% | inhibition at 10 µM (CDK6/Cyclin D1; average): 82.2% | inhibition at 10 µM (CDK6/Cyclin D1; experiment 1): 70.6% | inhibition at 10 µM (CDK6/Cyclin D1; experiment 2): 93.7% | inhibition at 10 µM (CDK17/Cyclin Y; [3]): 44.7% | inhibition at 10 µM (CDK17/Cyclin Y; CDK17/Y, experiment 1, read-out: Inhibition at 10µM (%)): 40.2% | inhibition at 10 µM (CDK17/Cyclin Y; [4]): 49.2% | inhibition at 10 µM (CDK20/Cyclin H; read-out: Inhibition at 10µM (%), CDK20/H, experiment 1): 59% | inhibition at 10 µM (CDK20/Cyclin H; read-out: Inhibition at 10µM (%), CDK20/H, experiment 2): 76.6% | inhibition at 10 µM (CDK13/Cyclin K; average): 18.1% | inhibition at 10 µM (CDK13/Cyclin K; experiment 1): 10.3% | inhibition at 10 µM (CDK13/Cyclin K; experiment 2): 25.9% | inhibition at 10 µM (CDK10/Cyclin L2; average): 64% | inhibition at 10 µM (CDK10/Cyclin L2; experiment 1): 47.6% | inhibition at 10 µM (CDK10/Cyclin L2; experiment 2): 80.4% | inhibition at 10 µM (CDK11A/Cyclin L2; average): 14% | inhibition at 10 µM (CDK11A/Cyclin L2; experiment 1): 10.4% | inhibition at 10 µM (CDK11A/Cyclin L2; experiment 2): 17.6% | inhibition at 10 µM (CDK16/Cyclin Y; experiment 1): 66.5% | inhibition at 10 µM (CDK16/Cyclin Y; experiment 2): 85.2% | IC50 (all 21 human CDKs; remaining CDK family, live HEK-293, read-out: Collateral CDK (potency)): > 1 µM | inhibition at 10 µM (CDK12/Cyclin K; average): 3.2% | inhibition at 10 µM (CDK12/Cyclin K; experiment 1): 8.2% | inhibition at 10 µM (CDK12/Cyclin K; experiment 2): -1.8% | inhibition at 10 µM (CDK8/Cyclin C; average): 11.3% | inhibition at 10 µM (CDK8/Cyclin C; experiment 1): 17.2% | inhibition at 10 µM (CDK8/Cyclin C; experiment 2): 5.4% | inhibition at 10 µM (CDK11B/Cyclin L2; average): 27.3% | inhibition at 10 µM (CDK11B/Cyclin L2; experiment 1): 13.2% | inhibition at 10 µM (CDK11B/Cyclin L2; experiment 2): 41.4% | inhibition at 10 µM (CDK18/Cyclin Y; average): 30.2% | inhibition at 10 µM (CDK18/Cyclin Y; experiment 1): 20.4% | inhibition at 10 µM (CDK18/Cyclin Y; experiment 2): 40.1%

CC(C)(C)c1nc(-c2cccc(NS(=O)(=O)c3c(F)cccc3F)c2F)c(-c2ccnc(N)n2)s1 [Dabrafenib]
inhibition at 10 µM (CDK19/Cyclin C; average): -6.6% | inhibition at 10 µM (CDK19/Cyclin C; experiment 1): 0.8% | inhibition at 10 µM (CDK19/Cyclin C; experiment 2): -14% | inhibition at 10 µM (CDK14/Cyclin Y; average): 0.0911% | inhibition at 10 µM (CDK14/Cyclin Y; experiment 1): 0.459% | inhibition at 10 µM (CDK14/Cyclin Y; experiment 2): -0.277% | inhibition at 10 µM (CDK15/Cyclin Y; [1]): 14.6% | inhibition at 10 µM (CDK15/Cyclin Y; CDK15/Y, experiment 1, read-out: Inhibition at 10µM (%)): 4.4% | inhibition at 10 µM (CDK15/Cyclin Y; [2]): 24.7% | inhibition at 10 µM (CDK17/Cyclin Y; [3]): 10.2% | inhibition at 10 µM (CDK17/Cyclin Y; [4]): 4% | inhibition at 10 µM (CDK17/Cyclin Y; read-out: Inhibition at 10µM (%), CDK17/Y, experiment 1): 16.4% | inhibition at 10 µM (CDK20/Cyclin H; CDK20/H, experiment 1, read-out: Inhibition at 10µM (%)): 13.5% | inhibition at 10 µM (CDK20/Cyclin H; CDK20/H, experiment 2, read-out: Inhibition at 10µM (%)): 6.7% | inhibition at 10 µM (CDK13/Cyclin K; average): 10.9% | inhibition at 10 µM (CDK13/Cyclin K; experiment 1): 7.1% | inhibition at 10 µM (CDK13/Cyclin K; experiment 2): 14.7% | inhibition at 10 µM (CDK10/Cyclin L2; average): 12.7% | inhibition at 10 µM (CDK10/Cyclin L2; experiment 1): 3% | inhibition at 10 µM (CDK10/Cyclin L2; experiment 2): 22.4% | inhibition at 10 µM (CDK5/CDK5R1; average): -2.2% | inhibition at 10 µM (CDK5/CDK5R1; experiment 1): -4.1% | inhibition at 10 µM (CDK5/CDK5R1; experiment 2): -0.278% | inhibition at 10 µM (CDK11A/Cyclin L2; average): 9.5% | inhibition at 10 µM (CDK11A/Cyclin L2; experiment 1): 2.1% | inhibition at 10 µM (CDK11A/Cyclin L2; experiment 2): 16.8% | inhibition at 10 µM (CDK16/Cyclin Y; experiment 1): 1.4% | inhibition at 10 µM (CDK16/Cyclin Y; experiment 2): -3.4% | engagement of CDKs at concentrations up to 10μM (all 21 human CDKs; live cells): only weakly engaged | inhibition at 10 µM (CDK12/Cyclin K; average): 20.2% | inhibition at 10 µM (CDK12/Cyclin K; experiment 1): 5.9% | inhibition at 10 µM (CDK12/Cyclin K; experiment 2): 34.6% | inhibition at 10 µM (CDK8/Cyclin C; average): -1.9% | inhibition at 10 µM (CDK8/Cyclin C; experiment 1): -1.4% | inhibition at 10 µM (CDK8/Cyclin C; experiment 2): -2.4% | inhibition at 10 µM (CDK11B/Cyclin L2; average): 4.4% | inhibition at 10 µM (CDK11B/Cyclin L2; experiment 1): 2.7% | inhibition at 10 µM (CDK11B/Cyclin L2; experiment 2): 6% | inhibition at 10 µM (CDK18/Cyclin Y; average): 8.1% | inhibition at 10 µM (CDK18/Cyclin Y; experiment 1): 1.7% | inhibition at 10 µM (CDK18/Cyclin Y; experiment 2): 14.5% | inhibition at 10 µM (CDK4/Cyclin D1; average): 21.4% | inhibition at 10 µM (CDK4/Cyclin D1; experiment 1): 5.4% | inhibition at 10 µM (CDK4/Cyclin D1; experiment 2): 37.4%

From PMC7265341, “Quantifying CDK inhibitor selectivity in live cells” (Nature Communications, 2020)
